According to the Biogen ADME set (Fang et al. 2023):
≈ marks a conversion by molar mass, not a printed value.

Conditions: for aqueous solubility: pH 6.8

| MDR1-MDCK efflux ratio | intrinsic clearance, human liver microsomes [mL/min/kg] | intrinsic clearance, rat liver microsomes [mL/min/kg] | aqueous solubility [µg/mL] | SMILES |
| --- | --- | --- | --- | --- |
| 0.659 | 35.1 | 456 | 43.6 (≈ 135 µM) | O=C(c1ccccc1-c1ncc(-c2ccccc2F)o1)N1CCC1 |
| 20.5 | – | – | 15.6 (≈ 41.6 µM) | COC(=O)c1ccc(NS(=O)(=O)c2ccc3c(c2)n(C)c(=O)n3C)cc1 |
| 5.51 | ≤ 4.74 | ≤ 10.7 | – | NCCOc1cccc(CC(=O)N2CCCN(C(=O)C3CCC3)CC2)c1 |
| 0.746 | 9.35 | 117 | 36.2 (≈ 151 µM) | O=C(CSc1ccc(F)cc1)N1CCCC1 |
| 122 | 120 | 235 | – | CCCc1cc(C)nc(O)c1CNC(=O)c1cc(-c2ccc(N3CCN(C(C)C)CC3)nc2)cc2c1cnn2C(C)C |
| – | 81.8 | 238 | – | CN1CCN(C(=O)c2ccc3cc(CCNc4ncnc5ccc(C#N)cc45)ccc3c2)CC1 |
| 0.876 | ≤ 4.74 | 45.3 | 38.1 (≈ 154 µM) | Cc1csc(NC(=O)CCc2ccncc2)n1 |
| 0.634 | 52.4 | 1060 | – | CN(CCn1cnc(C#N)c1C#N)c1ccccc1 |
| 10 | 58.6 | 461 | 37.6 (≈ 97.7 µM) | O=C(NCCNC(=O)c1cc(-c2ccccc2)nc2ccccc12)c1ccco1 |
| 1.56 | 9.77 | 93.7 | 61.2 (≈ 176 µM) | Cc1cc(C(=O)NC2CCN(C(=O)c3cc(C)sc3C)CC2)no1 |
| – | 93.5 | 323 | 3.15 (≈ 6.23 µM) | COC(=O)[C@]12CCC(C)(C)CC1C1C(=O)C=C3[C@@]4(C)C=C(C#N)C(=O)C(C)(C)[C@@H]4CC[C@@]3(C)[C@]1(C)CC2 (some centres undefined) |
| 1.26 | ≤ 4.74 | 138 | – | COc1cccc(Oc2ccc(NC(=O)CN3CCOCC3)cn2)c1 |
| 19.9 | 51.5 | 616 | – | COc1ccc(OC)c(S(=O)(=O)NCCC(=O)Nc2ccccc2C)c1 |
| 24.3 | 33.8 | 389 | – | O=C(Cc1cn2ccccc2n1)N1CCC(n2c(=O)[nH]c3ccccc32)CC1 |
| 0.766 | 9.46 | 124 | 51.7 (≈ 177 µM) | Cc1cc(N2CCN(C(=O)OC(C)(C)C)[C@H](C)C2)ncn1 |
| 0.804 | 39 | 438 | 8.9 (≈ 24.6 µM) | CC(=O)Nc1ccc(Oc2ncnc3scc(-c4ccccc4)c23)cc1 |
| 0.839 | 7.57 | 165 | – | CN(CCCC1CCCC1)Cc1cc(=O)[nH]c(=O)[nH]1 |
| – | 137 | 512 | 9.65 (≈ 36.4 µM) | Cc1ccn(-c2ccc3[nH]c4c(c3c2)CCCC4=O)n1 |
| 60 | 345 | 2300 | – | Cc1cc(Nc2ccc(F)cn2)cc(C2CCN(C(=O)CCn3ncc4ccccc43)C2)n1 (centres undefined) |

| MDR1-MDCK efflux ratio | intrinsic clearance, human liver microsomes [mL/min/kg] | intrinsic clearance, rat liver microsomes [mL/min/kg] | aqueous solubility [µg/mL] | SMILES |
| --- | --- | --- | --- | --- |
| 2.59 | 25.3 | 456 | 12.4 (≈ 38.8 µM) | Cc1cc2ccccc2n1CC(=O)N1CCc2ccc(O)cc2C1 |
| 29.1 | ≤ 4.74 | ≤ 10.7 | – | Cc1cc(C(=O)N2CCN(C(=O)C3CCC3)CC2)c(O)cn1 |
| 0.589 | 93.6 | 566 | 23.1 (≈ 60.7 µM) | O=C(CN1CCOC(c2ccc(F)cc2)C1)Nc1ccccc1OC(F)F (centres undefined) |
| 0.62 | ≤ 4.74 | 22.8 | 28.5 (≈ 132 µM) | CN(Cc1ccc(N)nc1)c1ncccn1 |
| 0.516 | 166 | 622 | – | Cc1cc(NC(=O)CN(C)CCOc2ccccc2)on1 |
| – | – | – | 1.88 (≈ 5.12 µM) | CC1=C(C(=O)OCc2ccc3c(c2)OCO3)C(c2ccccc2)NC(=O)N1 (centres undefined) |
| 18.9 | ≤ 4.74 | 14.3 | 58.2 (≈ 174 µM) | Cc1nn(C)c(C)c1NC(=O)CN1CCN(c2nccs2)CC1 |
| 3.33 | ≤ 4.74 | 47.9 | 39.8 (≈ 151 µM) | CC1(C)CCN(C(=O)NCCOc2cccnc2)C1 |
| 0.476 | ≤ 4.74 | ≤ 10.7 | 38.1 (≈ 159 µM) | Nc1ccc(C(=O)N2CCOCC2)c(Cl)c1 |
| 1.23 | 37.7 | 188 | – | Cn1cc(NC(=O)c2cnn3cccnc23)c(C2CCCCC2)n1 |
| 0.662 | 18.3 | 442 | – | C/C(=C/COc1c2occc2cc2ccc(=O)oc12)CO |
| 4.18 | ≤ 4.74 | ≤ 10.7 | 78 (≈ 253 µM) | COc1cc(CNC(=O)NC2CCCCC2)cc(OC)c1O |
| 0.723 | – | – | 0.31 (≈ 0.79 µM) | Cc1cc(F)ccc1S(=O)(=O)N1CCCc2cnc(N3CCOCC3)nc21 |
| 0.825 | ≤ 4.74 | 196 | – | CC1(C)[C@H]2CC=C(CN3CCC4(CCC(=O)N4)CC3)[C@@H]1C2 |
| 0.527 | 73 | 983 | 41.7 (≈ 140 µM) | CC(C)c1cnc(COc2ccc(Br)nc2)o1 |
| – | 33.9 | 108 | 39.8 (≈ 132 µM) | CCc1csc(NC(=O)c2ccc3c(c2)nc(C)n3C)n1 |
| 12 | 26.5 | 445 | – | Fc1cc(Br)ccc1CNCc1ccccn1 |
| 0.471 | 22.2 | 155 | 4.85 (≈ 18.5 µM) | Cc1cccc(NC(=O)c2cccc3ncccc23)c1 |
| 61.5 | 21 | 73.6 | – | CO[C@H]1/C=C\C=C(/C)C(=O)NC2=CC(=O)C(NCCN(C)C)=C(C[C@@H](C)C[C@@H](OC)[C@@H](O)[C@@H](C)/C=C(\C)[C@H]1OC(N)=O)C2=O |

| MDR1-MDCK efflux ratio | intrinsic clearance, human liver microsomes [mL/min/kg] | intrinsic clearance, rat liver microsomes [mL/min/kg] | aqueous solubility [µg/mL] | SMILES |
| --- | --- | --- | --- | --- |
| 0.359 | – | – | – | O=C(Nc1nc2ccccc2[nH]1)c1ccc(-n2cccc2)cc1 |
| 1.18 | ≤ 4.74 | 56.3 | – | O=C(NCCN1CCc2ccccc2C1=O)c1ccon1 |
| 0.737 | 6.22 | 884 | 66.7 (≈ 243 µM) | CCNC(=O)N1CCC2(CCc3ccccc3O2)CC1 |
| 1.5 | 17.1 | 623 | – | CC(C)(C)CCCNC(=O)N1CCN(Cc2ccon2)CC1 |
| 0.896 | ≤ 4.74 | 176 | 49.2 (≈ 145 µM) | O=C(CCCc1ccc(F)cc1)N1CCN(c2ccccc2)C(=O)C1 |
| 1.03 | ≤ 4.74 | ≤ 10.7 | 23.4 (≈ 82.8 µM) | Cn1cc(NC(=O)c2cn(Cc3ccccc3)nn2)cn1 |
| – | 61.8 | 122 | 4 (≈ 16.6 µM) | Cc1ccc2cc(C(=O)N(C)CCC#N)[nH]c2c1 |
| 13.7 | ≤ 4.74 | 163 | – | CCc1[nH]nc(NC2CCN(C(C)C)CC2)c1C |
| 1.8 | 111 | 566 | 55.6 (≈ 175 µM) | Cc1noc(C)c1C(=O)N1CCCN(c2ccc(F)cc2)CC1 |
| 78.1 | 8.55 | 69.1 | – | COc1nc2c(cc1CNC(=O)N1CCC[C@@H]1CO)C(=O)N(C1CCCC1)C2 |
| 0.562 | 21.5 | 959 | 38.9 (≈ 123 µM) | CN(C)S(=O)(=O)Nc1ccc(-n2ncc3ccccc32)cc1 |
| – | 116 | 2190 | 27.4 (≈ 81.7 µM) | C=C(C)COc1ccc(C(=O)NCCc2cn3ccccc3n2)cc1 |
| – | 89.7 | 1060 | 34.2 (≈ 138 µM) | CCONC(=O)Cc1coc2c(C)c(C)ccc12 |
| 1.29 | ≤ 4.74 | 15.3 | – | COCC(=O)Nc1cc(C#N)cn1C(C)(C)C |
| 14.7 | ≤ 4.74 | 16.1 | – | CCc1nc(CN2CCC(=O)Nc3cc(F)ccc32)n[nH]1 |
| 1.75 | ≤ 4.74 | ≤ 10.7 | – | C[C@@H](NC(=O)N1CCC2(CCN(C)CC2)C1)c1ccc(F)cc1 |
| 2.14 | 29.6 | 357 | 47.4 (≈ 140 µM) | O=c1[nH]c2ccccc2n1C1CCN(CCOc2ccccc2)CC1 |
| 32.7 | 20.5 | 157 | 21.2 (≈ 43.2 µM) | C[C@@H](/C=C\C(F)(F)F)Oc1cc(-c2cc(-c3cc(CN(C)C)cs3)cnc2N)ccc1C(N)=O |
